Test results taken from the supplement of paper PMC13207355.

Key:
Details in all cases: exposure time: 72 h
[1] = test system: E13 (patient-derived glioblastoma stem cells of classical subtype); assay: surviving fraction (nuclei count normalised to DMSO); higher = more cells surviving (less toxic)
[2] = test system: E21 (patient-derived glioblastoma stem cells of mesenchymal subtype); assay: as above
[3] = test system: E28 (patient-derived glioblastoma stem cells of classical subtype); assay: as above
[4] = test system: E31 (patient-derived glioblastoma stem cells of proneural subtype); assay: as above
[5] = test system: E34 (patient-derived glioblastoma stem cells of proneural subtype); assay: as above
[6] = test system: E57 (patient-derived glioblastoma stem cells of mesenchymal subtype); assay: as above
[7] = test system: FT3469 (normal neural stem cell line); assay: as above
[8] = test system: E13; assay: phenotypic distance (Euclidean, principal components) from DMSO controls (arbitrary units); higher = stronger morphological change
[9] = test system: E21; assay: as above
[10] = test system: E28; assay: as above
[11] = test system: E31; assay: as above
[12] = test system: E34; assay: as above
[13] = test system: E57; assay: as above
[14] = test system: FT3469; assay: as above
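Throughout, for phenotypic distance (Euclidean, principal components) from DMSO controls: cell Painting imaging in 384-well plates, CellProfiler features reduced to at least 20 principal components, Euclidean distance versus same-plate DMSO vehicle wells (0.1% v/v), median over six images per well.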
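Throughout, for surviving fraction (nuclei count normalised to DMSO): nuclei counted by high-content imaging of Hoechst-stained cells in laminin-coated 384-well plates, relative to 0.1% DMSO vehicle wells, with staurosporine as cell-death control.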

Clc1ccc(COC(Cn2ccnc2)c2ccc(Cl)cc2Cl)c(Cl)c1 (stereo not drawn) [Miconazole]
Details | phenotypic distance | surviving fraction
[1], 4.1 nM | – | 0.787
[1], 12.3 nM | – | 1.01
[1], 37 nM | – | 0.925
[1], 111.1 nM | – | 0.818
[1], 333.3 nM | – | 0.709
[1], 1000 nM | – | 0.814
[1], 3000 nM | – | 0.539
[2], 4.1 nM | – | 0.897
[2], 12.3 nM | – | 1.05
[2], 37 nM | – | 0.979
[2], 111.1 nM | – | 1.01
[2], 333.3 nM | – | 1.02
[2], 1000 nM | – | 0.955
[2], 3000 nM | – | 0.823
[3], 4.1 nM | – | 1.09
[3], 12.3 nM | – | 1.19
[3], 37 nM | – | 1.06
[3], 111.1 nM | – | 1.13
[3], 333.3 nM | – | 1.07
[3], 1000 nM | – | 0.886
[3], 3000 nM | – | 0.537
[4], 4.1 nM | – | 1
[4], 12.3 nM | – | 1.04
[4], 37 nM | – | 1.37
[4], 111.1 nM | – | 0.936
[4], 333.3 nM | – | 1.13
[4], 1000 nM | – | 1.06
[4], 3000 nM | – | 0.976
[5], 4.1 nM | – | 0.9
[5], 12.3 nM | – | 0.972
[5], 37 nM | – | 1
[5], 111.1 nM | – | 0.977
[5], 333.3 nM | – | 1.01
[5], 1000 nM | – | 0.981
[5], 3000 nM | – | 0.82
[6], 4.1 nM | – | 1.04
[6], 12.3 nM | – | 1.09
[6], 37 nM | – | 1.1
[6], 111.1 nM | – | 1.06
[6], 333.3 nM | – | 1.07
[6], 1000 nM | – | 0.918
[6], 3000 nM | – | 0.595
[7], 4.1 nM | – | 1.17
[7], 12.3 nM | – | 1.07
[7], 37 nM | – | 0.966
[7], 111.1 nM | – | 0.907
[7], 333.3 nM | – | 0.954
[7], 1000 nM | – | 0.875
[7], 3000 nM | – | 0.492
[8], 4.1 nM | 0.853 | –
[8], 12.3 nM | 0.53 | –
[8], 37 nM | 0.487 | –
[8], 111.1 nM | 0.696 | –
[8], 333.3 nM | 1.05 | –
[8], 1000 nM | 1.1 | –
[8], 3000 nM | 2.12 | –
[9], 4.1 nM | 0.64 | –
[9], 12.3 nM | 0.477 | –
[9], 37 nM | 0.693 | –
[9], 111.1 nM | 0.637 | –
[9], 333.3 nM | 0.796 | –
[9], 1000 nM | 1.19 | –
[9], 3000 nM | 2.32 | –
[10], 4.1 nM | 0.619 | –
[10], 12.3 nM | 0.863 | –
[10], 37 nM | 0.65 | –
[10], 111.1 nM | 0.493 | –
[10], 333.3 nM | 0.784 | –
[10], 1000 nM | 0.766 | –
[10], 3000 nM | 1.23 | –
[11], 4.1 nM | 0.925 | –
[11], 12.3 nM | 0.493 | –
[11], 37 nM | 1.32 | –
[11], 111.1 nM | 0.834 | –
[11], 333.3 nM | 1.3 | –
[11], 1000 nM | 1.07 | –
[11], 3000 nM | 1.51 | –
[12], 4.1 nM | 0.501 | –
[12], 12.3 nM | 0.465 | –
[12], 37 nM | 0.883 | –
[12], 111.1 nM | 0.636 | –
[12], 333.3 nM | 0.903 | –
[12], 1000 nM | 0.701 | –
[12], 3000 nM | 1.2 | –
[13], 4.1 nM | 0.349 | –
[13], 12.3 nM | 0.269 | –
[13], 37 nM | 0.652 | –
[13], 111.1 nM | 1.25 | –
[13], 333.3 nM | 0.929 | –
[13], 1000 nM | 1.89 | –
[13], 3000 nM | 3.89 | –
[14], 4.1 nM | 0.444 | –
[14], 12.3 nM | 0.593 | –
[14], 37 nM | 0.461 | –
[14], 111.1 nM | 0.559 | –
[14], 333.3 nM | 0.587 | –
[14], 1000 nM | 0.791 | –
[14], 3000 nM | 2.66 | –
